This passage reports IC50 results from USRE49687E1, “Thienopyrimidine and thienopyridine compounds and methods of use thereof” (The Regents of The University of Michigan, priority 2014, dated 2023).

This assay concerns the target T1, menin-MLL interaction (Homo sapiens, UniProt O00255).
T1 sequence (O00255 1-610): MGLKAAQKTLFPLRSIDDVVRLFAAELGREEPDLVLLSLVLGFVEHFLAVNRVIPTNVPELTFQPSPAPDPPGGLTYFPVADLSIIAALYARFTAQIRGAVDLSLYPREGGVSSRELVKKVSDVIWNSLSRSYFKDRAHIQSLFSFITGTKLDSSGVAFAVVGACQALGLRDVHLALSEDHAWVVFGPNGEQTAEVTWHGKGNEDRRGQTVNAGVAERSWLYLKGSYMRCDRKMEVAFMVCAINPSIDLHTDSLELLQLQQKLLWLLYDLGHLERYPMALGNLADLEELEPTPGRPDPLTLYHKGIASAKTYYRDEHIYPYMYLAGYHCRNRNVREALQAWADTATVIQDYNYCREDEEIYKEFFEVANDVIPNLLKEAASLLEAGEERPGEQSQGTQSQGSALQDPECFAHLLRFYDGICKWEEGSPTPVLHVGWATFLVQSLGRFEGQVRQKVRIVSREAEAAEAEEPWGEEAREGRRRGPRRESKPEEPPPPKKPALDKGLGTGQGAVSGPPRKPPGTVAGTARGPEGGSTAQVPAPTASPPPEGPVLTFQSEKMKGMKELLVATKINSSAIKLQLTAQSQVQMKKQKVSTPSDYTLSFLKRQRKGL
Description: Fluorescence polarization (FP) competition assay of the menin-MLL interaction. It counts as binding. The conditions noted are these: inhibition of the menin-MLL interaction; read-out: IC50 values for Table 1 inhibitors of menin. Background: In fluorescence polarisation assays a small probe gives low polarisation when free and higher when bound to something large.

pIC50: −log10 of the molar value.

The term pIC50 denotes −log10 of the IC50, conventionally taken in molar units. As for `C=CC(=O)NC1CN(CCn2c(C#N)cc3c(C)c(CN4CCC(Nc5ncnc6sc(CC(F)(F)F)cc56)CC4)ccc32)C1` [Compound 28], the pIC50 is 7.00 to 7.52.

On to `Cc1c(CN2CCC(Nc3ncnc4sc(CC(F)(F)F)cc34)CC2)ccc2c1cc(C#N)n2CCN1CCN(C(=O)/C=C/CN(C)C)CC1` [Compound 6], for which the pIC50 is above 7.52.

For the compound `C/C=C/S(=O)(=O)N1CCN(CCn2c(C#N)cc3c(C)c(CN4CCC(Nc5ncnc6sc(CC(F)(F)F)cc56)CC4)ccc32)CC1` [Compound 7], the pIC50 was above 7.52.

Consider `CCC(=O)N1CCC(C(O)Cn2c(C#N)cc3c(C)c(CN4CCC(Nc5ncnc6sc(CC(F)(F)F)cc56)CC4)ccc32)CC1` (centres unmarked) [Compound 211], for which the pIC50 is 6.00 to 7.00.

`C=CC(=O)N1CC2(CN(CCn3c(C#N)cc4c(C)c(CN5CCC(Nc6ncnc7sc(CC(F)(F)F)cc67)CC5)ccc43)C2)C1` [Compound 174]: the negative-log IC50 (pIC50) was 7.00 to 7.52.

Regarding `CCC(=O)Nc1ccc(C(C)(O)Cn2c(C#N)cc3c(C)c(CN4CCC(Nc5ncnc6sc(CC(F)(F)F)cc56)CC4)ccc32)cn1` (centres unmarked) [Compound 212], the pIC50 is 7.00 to 7.52.

Consider `C=CC(=O)N1CCC2(CN(CCn3c(C#N)cc4c(C)c(CN5CCC(Nc6ncnc7sc(CC(F)(F)F)cc67)CC5)ccc43)C2)C1` [Compound 176], for which the pIC50 is 7.00 to 7.52.

As for `C=CC(=O)Nc1ccc(CCn2c(C#N)cc3c(C)c(CN4CCC(Nc5ncnc6sc(CC(F)(F)F)cc56)CC4)ccc32)cc1P(=O)(C(C)C)C(C)C` [Compound 206], the pIC50 is 6.00 to 7.00.

With `C=CC(=O)N1CCC2(CCN(CCn3c(C#N)cc4c(C)c(CN5CCC(Nc6ncnc7sc(CC(F)(F)F)cc67)CC5)ccc43)CC2)C1` [Compound 170], the pIC50 is 7.00 to 7.52.

As for `C=CC(=O)NC1CCN(CCn2c(C#N)cc3cc(CN4CCC(Nc5ncnc6sc(CC(F)(F)F)cc56)CC4)c(O)cc32)CC1` [Compound 93], the pIC50 is above 7.52.

As to `C=CC(=O)N1CCC(Cn2c(C#N)cc3c(C)c(CN4CCC(Nc5ncnc6sc(CC(F)(F)F)cc56)CC4)ccc32)C1` (centres unmarked) [Compound 208], the pIC50 was 7.00 to 7.52.

Regarding `C=CC(=O)N[C@H]1CCN(CCn2c(C#N)cc3c(C)c(CN4CCC(Nc5ncnc6sc(CC(F)(F)F)cc56)CC4)ccc32)C1` [Compound 31], the pIC50 is above 7.52.

With `C=CC(=O)Nc1ccc([C@@](C)(O)Cn2c(C#N)cc3c(C)c(CN4CCC(Nc5ncnc6sc(CC(F)(F)F)cc56)CC4)ccc32)cc1` [Compound 244], the pIC50 was 7.00 to 7.52.

For the compound `C=CC(=O)Nc1nc(CCn2c(C#N)cc3c(C)c(CN4CCC(Nc5ncnc6sc(CC(F)(F)F)cc56)CC4)ccc32)cs1` [Compound 34, N-(4-(2-(2-cyano-4-methyl-5-((4-((6-(2,2,2-trifluoroethyl)thieno[2,3-d]pyrimidin-4-yl)amino)piperidin-1-yl)methyl)-1H-indol-1-yl)ethyl)thiazol-2-yl)acrylamide], the pIC50 is 7.00 to 7.52.

For `C=CC(=O)Nc1ccc(C2(Cn3c(C#N)cc4c(C)c(CN5CCC(Nc6ncnc7sc(CC(F)(F)F)cc67)CC5)ccc43)CC2)cn1` [Compound 216], the pIC50 was 6.00 to 7.00.

For `C=CC(=O)Nc1ccc(CCn2c(C#N)cc3c(C)c(CN4CCC(Nc5ncnc6sc(CC(F)(F)F)cc56)CC4)ccc32)cn1` [Compound 100, N-(5-(2-(2-cyano-4-methyl-5-((4-(6-(2,2,2-trifluoroethyl)thieno[2,3-d]pyrimidin-4-ylamino)piperidin-1-yl)methyl)-1H-indol-1-yl)ethyl)pyridin-2-yl)acrylamide], the pIC50 was above 7.52.

`C=CC(=O)Nc1ccc(C(C)(O)Cn2c(C#N)cc3c(C)c(CN4CCC(Nc5ncnc6sc(CC(F)(F)F)cc56)CC4)ccc32)cn1` (centres unmarked) [Compound 209]: the pIC50 was 7.00 to 7.52.

Turning to `C/C=C/C(=O)Nc1ccc(CCn2c(C#N)cc3c(C)c(CN4CCC(Nc5ncnc6sc(CC(F)(F)F)cc56)CC4)ccc32)cn1` [Compound 106], the pIC50 was 7.00 to 7.52.

As to `C=CC(=O)NCc1cc(Cn2c(C#N)cc3c(C)c(CN4CCC(Nc5ncnc6sc(CC(F)(F)F)cc56)CC4)ccc32)n[nH]1` [Compound 10], the pIC50 is 7.00 to 7.52.

As to `C=CC(=O)N[C@@H]1CCN(CCn2c(C#N)cc3c(C)c(CN4CCC(Nc5ncnc6sc(CC(F)(F)F)cc56)CC4)ccc32)C1` [Compound 32], the pIC50 is above 7.52.

As for `C=CC(=O)N1CCC(Cn2c(C#N)cc3c(C)c(CN4CCC(Nc5ncnc6sc(CC(F)(F)F)cc56)CC4)ccc32)CC1` [Compound 233], the pIC50 was 7.00 to 7.52.

On to `CP(C)(=O)c1cc2cc(CN3CCC(Nc4ncnc5sc(CC(F)(F)F)cc45)CC3)ccc2[nH]1` [Compound 205], for which the pIC50 was below 6.00.

As for `Cc1c(CN2CCC(Nc3ncnc4sc(CC(F)(F)F)cc34)CC2)ccc2c1cc(C#N)n2CCc1cccc(N)c1` [Compound 189], the pIC50 is 7.00 to 7.52.

With `C=CC(=O)Nc1ccc([C@](C)(O)Cn2c(C#N)cc3c(C)c(CN4CCC(Nc5ncnc6sc(CC(F)(F)F)cc56)CC4)ccc32)cc1` [Compound 243], the pIC50 was 7.00 to 7.52.

`C=CC(=O)N1CCC(C(O)Cn2c(C#N)cc3c(C)c(CN4CCC(Nc5ncnc6sc(CC(F)(F)F)cc56)CC4)ccc32)CC1` (centres unmarked) [Compound 210]: the pIC50 was 6.00 to 7.00.

Turning to `C=CC(=O)N1CC2(CCN(CCn3c(C#N)cc4c(C)c(CN5CCC(Nc6ncnc7sc(CC(F)(F)F)cc67)CC5)ccc43)C2)C1` [Compound 182], the pIC50 was 7.00 to 7.52.

In the case of `C/C=C/C(=O)N1CCN(CCn2c(C#N)cc3c(C)c(CN4CCC(Nc5ncnc6sc(CC(F)(F)F)cc56)CC4)ccc32)CC1` [Compound 4], the pIC50 was above 7.52.

As to `CCC(=O)Nc1ccc(CCn2c(C#N)cc3c(C)c(CN4CCC(Nc5ncnc6sc(CC(F)(F)F)cc56)CC4)ccc32)cn1` [Compound 254], the negative-log IC50 (pIC50) was 6.00 to 7.00.

As for `C=CC(=O)N1CC2CN(CCn3c(C#N)cc4c(C)c(CN5CCC(Nc6ncnc7sc(CC(F)(F)F)cc67)CC5)ccc43)CC2C1` (centres unmarked) [Compound 168], the pIC50 is 7.00 to 7.52.

In the case of `C=CC(=O)NC1CCN(CCn2c(C#N)cc3c(C)c(CN4CCC(Nc5ncnc6sc(CC(F)(F)F)cc56)CC4)ccc32)C1` (centres unmarked) [Compound 29], the pIC50 is above 7.52.

Take `Cc1c(CN2CCC(Nc3ncnc4sc(CC(F)(F)F)cc34)CC2)ccc2c1cc(C#N)n2CCc1ccc(P(C)(C)=O)cc1` [Compound 202]: the pIC50 is 7.00 to 7.52.

In the case of `CCC(=O)N1CCCN(CCn2c(C#N)cc3c(C)c(CN4CCC(Nc5ncnc6sc(CC(F)(F)F)cc56)CC4)ccc32)CC1` [Compound 103], the pIC50 is 7.00 to 7.52.

In the case of `C=CC(=O)N1C2CCC1CN(CCn1c(C#N)cc3c(C)c(CN4CCC(Nc5ncnc6sc(CC(F)(F)F)cc56)CC4)ccc31)C2` [Compound 24], the pIC50 was 7.00 to 7.52.

For `C=CC(=O)Nc1ccc(CCn2c(C#N)cc3c(C)c(CN4CCC(Nc5ncnc6sc(CC(F)(F)F)cc56)CC4)ccc32)cc1P(C)(C)=O` [Compound 199], the pIC50 was above 7.52.

As to `[2H]C([2H])=C([2H])C(=O)Nc1ccc(CCn2c(C#N)cc3c(C)c(CN4CCC(Nc5ncnc6sc(CC(F)(F)F)cc56)CC4)ccc32)cc1` [Compound 241], the pIC50 was 7.00 to 7.52.

For the compound `CCC(=O)Nc1ccc(CCn2c(C#N)cc3c(C)c(CN4CCC(Nc5ncnc6sc(CC(F)(F)F)cc56)CC4)ccc32)cc1` [Compound 102], the pIC50 is above 7.52.

Turning to `C=CC(=O)N1CCC2(CC1)CN(CCn1c(C#N)cc3c(C)c(CN4CCC(Nc5ncnc6sc(CC(F)(F)F)cc56)CC4)ccc31)C2` [Compound 178], the pIC50 is 7.00 to 7.52.

Turning to `C=CC(=O)Nc1ccc(CCn2c(C#N)cc3c(C)c(CN4CCC(Nc5ncnc6sc(CC(F)(F)F)cc56)CC4)ccc32)cc1S(C)(=O)=O` [Compound 105], the pIC50 is above 7.52.

Regarding `[2H]C([2H])=C([2H])C(=O)Nc1ccc(C(O)Cn2c(C#N)cc3c(C)c(CN4CCC(Nc5ncnc6sc(CC(F)(F)F)cc56)CC4)ccc32)cn1` (centres unmarked) [Compound 242], the pIC50 was 7.00 to 7.52.

Regarding `C=CC(=O)Nc1ccc(C(C)(O)Cn2c(C#N)cc3c(C)c(CN4CCC(Nc5ncnc6sc(CC(F)(F)F)cc56)CC4)ccc32)cc1` (centres unmarked) [Compound 115], the pIC50 is 7.00 to 7.52.

Take `C=CC(=O)NCCC(O)(CO)Cn1c(C#N)cc2c(C)c(CN3CCC(Nc4ncnc5sc(CC(F)(F)F)cc45)CC3)ccc21` (centres unmarked) [Compound 11]: the pIC50 was above 7.52.

Regarding `C=CC(=O)N1CC2(CCN(CCn3c(C#N)cc4c(C)c(CN5CCC(Nc6ncnc7sc(CC(F)(F)F)cc67)CC5)ccc43)CC2)C1` [Compound 184], the pIC50 was above 7.52.

Take `C=CS(=O)(=O)NC1CCN(CCn2c(C#N)cc3c(C)c(CN4CCC(Nc5ncnc6sc(CC(F)(F)F)cc56)CC4)ccc32)CC1` [Compound 232]: the pIC50 is above 7.52.

On to `C=CC(=O)NC1CCN(CCn2c(C#N)cc3c(C)c(CN4CCC(Nc5ncnc6sc(CC(F)(F)F)cc56)CC4)ccc32)CC1` [Compound 25], for which the pIC50 was 7.00 to 7.52.

For the compound `C=CC(=O)Nc1ccc(CCn2c(C#N)cc3c(C)c(CN4CCC(Nc5ncnc6sc(CC(F)(F)F)cc56)CC4)ccc32)cc1C#N` [Compound 194], the pIC50 was 7.00 to 7.52.

For `C=CS(=O)(=O)N1CCN(CCn2c(C#N)cc3c(C)c(CN4CCC(Nc5ncnc6sc(CC(F)(F)F)cc56)CC4)ccc32)C[C@@H]1C` [Compound 230], the pIC50 is above 7.52.

For the compound `C=CS(=O)(=O)N1C2CCC1CN(CCn1c(C#N)cc3c(C)c(CN4CCC(Nc5ncnc6sc(CC(F)(F)F)cc56)CC4)ccc31)C2` [Compound 23], the pIC50 was above 7.52.
